Values of other authors in patent US20170196950A1, “METHOD FOR PRODUCING AUTOLOGOUS TOLEROGENIC DENDRITIC CELLS (TOLDCS) WITH SPECIFIC ANTIGENS AND THEIR USE IN THE PREPARATION OF A MEDICAMENT USEFUL FOR THE TREATMENT OF SYSTEMIC LUPUS ERYTHEMATOSUS (SLE)” (PONTIFICIA UNIVERSIDAD CATOLICA DE CHILE, priority 2014, published 2017).

Key:
lupus nephritis patients = details: maintenance phase
lupus patients = details: controlled clinical studies

Molecule | Patients who presented serious adverse effects (lupus nephritis patients) | Patients withdrawn from the study (lupus nephritis patients) | Efficacy in lupus (lupus patients)
COc1c(C)c2c(c(O)c1C/C=C(\C)CCC(=O)OCCN1CCOCC1)C(=O)OC2 [MMF, mycophenolate mofetil] | 23.5% | 25.2% | 
Cn1cnc([N+](=O)[O-])c1Sc1ncnc2nc[nH]c12 [azathioprine] | 33.3% | 39.6% | 
rituximab |  |  | no efficacy
